This passage reports IC50 results from US8791133B2, “Pyridylvinylpyrazoloquinolines as PAR1 inhibitors” (Sanofi, priority 2010, dated 2014).

The experiment has as its target T1, PAR1 (Homo sapiens, UniProt P25116).
T1 construct: endogenous in cells; host or cells: washed blood platelets from healthy volunteers
T1 sequence (P25116 22-425): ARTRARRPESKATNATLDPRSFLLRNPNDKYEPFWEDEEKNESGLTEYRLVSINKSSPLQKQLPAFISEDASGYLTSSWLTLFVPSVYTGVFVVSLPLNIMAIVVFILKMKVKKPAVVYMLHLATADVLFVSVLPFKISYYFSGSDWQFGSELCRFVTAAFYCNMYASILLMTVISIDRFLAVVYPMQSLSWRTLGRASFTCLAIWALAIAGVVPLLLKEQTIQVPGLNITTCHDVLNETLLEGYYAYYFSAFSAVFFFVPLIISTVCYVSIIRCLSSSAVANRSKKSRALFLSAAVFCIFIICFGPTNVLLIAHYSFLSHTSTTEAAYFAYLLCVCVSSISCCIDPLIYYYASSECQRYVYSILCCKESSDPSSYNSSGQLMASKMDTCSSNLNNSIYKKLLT
The experiment in a line: Inhibition of PAR1-mediated platelet aggregation induced by TRAP (thrombin receptor-activating peptide), 96-well format. It counts as cell-based. The conditions noted are these: washed platelets from healthy volunteers; TRAP as agonist; AUC of kinetics at 650 nm, 37° C., 20 minutes. How it is done:
PAR1 Determination Method: Inhibition of PAR1-Mediated Platelet Aggregation
The pharmacological testing of the substances took place in platelet aggregation induced by TRAP (thrombin receptor-activating peptide) in 96-well format. For this purpose, blood was taken from healthy volunteers in 20 ml syringes containing 2 ml of 3.13% strength sodium citrate solution. After centrifugation at 150×g for 20 minutes, the platelet-rich plasma (PRP) was separated off and mixed with 1 μl of PGE1 solution (500 μg/ml in ethanol)/ml of PRP. Incubation at RT for 5 minutes was followed by centrifugation at 120×g for 15 minutes to remove the leukocytes. The leukocyte-free PRP was transferred in 5 ml portions into 15 ml PP tubes and centrifuged at 360×g for 15 minutes in order to pellet the platelets. The plasma was then decanted off and the platelet sediment from 5 ml of PRP was resuspended in 1 ml of Tyrode's (120 mM NaCl, 2.6 mM KCl, 12 mM NaHCO3, 0.39 mM NaH2PO4×H2O, 10 mM HEPES, 0.35% BSA (Bovine Serum Albumin), 5.5 mM glucose, pH 7.4) and adjusted with Tyrode's to a platelet count of 3×10^5/microliter (μl). 13 μl of this cell suspension were then mixed with 866 μl of 10 mM CaCl2 solution, and 120 μl thereof were pipetted into each well of a 96-well plate containing 15 μl of the substance to be tested. After incubation at RT in the dark for 30 minutes, 15 μl of a TRAP solution (70-100 μM) were added as agonist, and kinetics were recorded at 650 nm in a SpectraMax 340 at 37° C. for 20 minutes while shaking. The areas under the curves of negative control (Tyrode's/DMSO) and positive control (15 μl of agonist/DMSO) were calculated and the difference was fixed as the 100% value. The substances to be tested were pipetted as serial dilutions in duplicate determination, the AUC was likewise determined for each substance concentration, and the % inhibition of the AUC compared with the control was calculated. On the basis of the % inhibition, the IC50 was calculated by nonlinear regression analysis according to the 4-parameter equation.

For orientation: IC50 means the concentration at which inhibition is half-maximal. Read a low IC50 as inhibition by little substance.

With `CC(C)C1CC(=O)C2=C(C1)Nc1[nH]nc(C(=O)NCC3CC3)c1C2/C=C/c1ccc(-c2cccc(F)c2)cn1` (mixture of isomers) [Example 10, 4-{(E)-2-[5-(3-Fluorophenyl)pyridin-2-yl]vinyl}-7-isopropyl-5-oxo-4,5,6,7,8,9-hexahydro-1H-pyrazolo[3,4-b]quinoline-3-cyclopropylmethylcarboxamide], the IC50 turned out to be 1390 nM.
The figure for `CC1CC(=O)C2=C(C1)Nc1[nH]nc(C(=O)NCC3CC3)c1C2/C=C/c1ccc(-c2cccc(F)c2)cn1` (single isomer, unassigned) [diastereomer 1 from example 13] is 5120 nM; for `CC(C)NC(=O)c1n[nH]c2c1C(/C=C/c1ccc(-c3cccc(F)c3)cn1)C1=C(CC(C)(C)CC1=O)N2` (stereo not shown) [Example 8, 4-{(E)-2-[5-(3-Fluorophenyl)pyridin-2-yl]vinyl}-7,7-dimethyl-5-oxo-4,5,6,7,8,9-hexahydro-1H-pyrazolo[3,4-b]quinoline-3-isopropylcarboxamide] it is 1880 nM; for `CC(C)(C)CNC(=O)c1n[nH]c2c1C(/C=C/c1ccc(-c3cccc(F)c3)cn1)C1=C(CC(C)(C)CC1=O)N2` (stereo not shown) [Example 15, 4-{(E)-2-[5-(3-Fluorophenyl)pyridin-2-yl]vinyl}-7,7-dimethyl-5-oxo-4,5,6,7,8,9-hexahydro-1H-pyrazolo[3,4-b]quinoline-3-(2,2-dimethylpropyl)carboxamide] it is 4230 nM.
The compound `CC(C)(CO)CNC(=O)c1n[nH]c2c1C(C=Cc1ccc(-c3cccc(F)c3)cn1)C1=C(CC3(CCCC3)CC1=O)N2` (stereo not shown) [Example 31] yielded an IC50 of 380 nM.
Consider `O=C1CC2(CCCC2)CC2=C1C(C=Cc1ccc(-c3cccc(F)c3)cn1)c1c(C(=O)NCC3(CO)CCC3)n[nH]c1N2` (stereo not shown) [Example 33], for which the half-inhibitory concentration (IC50) was < 400 nM.
For `O=C1CC2(CCCC2)CC2=C1[C@H](/C=C/c1ccc(-c3cccc(F)c3)cn1)c1c(C(=O)NCC3(CO)CC3)n[nH]c1N2` [Example 35] the value was 410 nM; for `CC(C)(CO)CNC(=O)c1n[nH]c2c1C(C=Cc1ccc(-c3cccc(F)c3)cn1)C1=C(CC3(CCC3)CC1=O)N2` (stereo not shown) [Example 36], 460 nM.
The figure for `CN1C2=C(C(=O)CC3(CCCC3)C2)C(/C=C/c2ccc(-c3cccc(F)c3)cn2)c2c(C(=O)NCC(C)(C)C)n[nH]c21` (stereo not shown) [Example 37] is 710 nM; for `O=C1CC2(CCCC2)CC2=C1C(/C=C/c1ccc(-c3cccc(F)c3)cn1)c1c(C(=O)NC[C@H]3C[C@@H](O)C3)n[nH]c1N2` (stereo partly shown) [Example 38] it is 820 nM; for `COC(C)(C)CNC(=O)c1n[nH]c2c1C(C=Cc1ccc(-c3cccc(F)c3)cn1)C1=C(CC3(CCCC3)CC1=O)N2` (stereo not shown) [Example 39] it is 450 nM.
For `COCCNC(=O)c1n[nH]c2c1C(/C=C/c1ccc(-c3cccc(F)c3)cn1)C1=C(CC3(CCCC3)CC1=O)N2` (stereo not shown) [Example 43] the value was 1200 nM; for `COCCNC(=O)c1n[nH]c2c1C(/C=C/c1ccc(-c3cccc(F)c3)cn1)C1=C(CC3(CCC3)CC1=O)N2` (stereo not shown) [Example 46], 1500 nM; for `O=C1CC2(CCCC2)CC2=C1C(/C=C/c1ccc(-c3cccc(F)c3)cn1)c1c(C(=O)NC3CCCC3)n[nH]c1N2` (stereo not shown) [Example 47], 1400 nM.
`CC(C)(CN)CNC(=O)c1n[nH]c2c1C(/C=C/c1ccc(-c3cccc(F)c3)cn1)C1=C(CC3(CCCC3)CC1=O)N2` (stereo not shown) [Example 50] yielded a half-maximal inhibitory concentration (IC50) of 910 nM.
For `CC1(CNC(=O)c2n[nH]c3c2C(/C=C/c2ccc(-c4cccc(F)c4)cn2)C2=C(CC4(CCCC4)CC2=O)N3)COC1` (stereo not shown) [Example 54] the value was 840 nM.
